According to ChEMBL document CHEMBL1255199, “Endochin optimization: structure-activity and structure-property relationship studies of 3-substituted 2-methyl-4(1H)-quinolones with antimalarial activity” (J Med Chem, 2010):
In brackets after ≈: the same amount, converted by molar mass.

What was measured:
Plasmodium falciparum [1] = test: Antimalarial activity against chloroquine and pyrimethamine-resistant Plasmodium falciparum W2 infected in human A+ erythrocytes after 72 hrs by SYBR Green I assay; format: functional, organism-based; details: W2, 72 h
[2] = Passive transcellular permeability of the compound at pH 7.4 by PAMPA; format: ADME; details: for Papp: read-out: permeability
Plasmodium falciparum [3] = test: Antimalarial activity against chloroquine, mefloquine, pyrimethamine and atovaquone-resistant Plasmodium falciparum TM90-C2B infected in human A+ erythrocytes after 72 hrs by SYBR Green I assay; format: functional, organism-based
[4] = Lipophilicity, log D of the compound at pH 7.4; details: buffer
physchem = details: aqueous, pH 7.4
Description: Aqueous solubility of the compound at pH 7.4 by HPLC analysis

[5] = Passive transcellular permeability of the compound at pH 4 by PAMPA; format: ADME; details: read-out: permeability
in vitro = details: mouse, J774 cells
Description: Cytotoxicity index, ratio of EC50 for mice (Mus musculus) J774 cells to EC50 for chloroquine, mefloquine, pyrimethamine and atovaquone-resistant Plasmodium falciparum TM90-C2B

J774 = test: Cytotoxicity against mouse J774 cells; format: cell-based

Compound | EC50 (Plasmodium falciparum [1]) | Papp [2] | EC50 (Plasmodium falciparum [3]) | logD [4] | solubility (physchem) | Papp [5] | selectivity ratio (in vitro) | EC50 (J774) | permeability [2]
Cc1[nH]c2ccccc2c(=O)c1C1CCCCC1 | 0.591 µM | 230 ×10⁻⁶ cm/s | 2.23 µM | 2.45 | 10 µM (≈ 2.41 µg/mL) | 260 ×10⁻⁶ cm/s | > 18.6 | > 41.4 µM | –
Cc1[nH]c2ccccc2c(=O)c1-c1ccccc1 | 0.711 µM | 33 ×10⁻⁶ cm/s | 0.538 µM | 2.02 | > 20 µM | 16.6 ×10⁻⁶ cm/s | > 79.1 | > 42.5 µM | –
Cc1[nH]c2ccccc2c(=O)c1Cc1ccccc1 | > 5.01 µM | 102 ×10⁻⁶ cm/s | 6.2 µM | 1.93 | 10 µM (≈ 2.49 µg/mL) | 110 ×10⁻⁶ cm/s | > 6.5 | > 40.1 µM | –
COc1ccc2[nH]c(C)c(Br)c(=O)c2c1 | 3 µM | 16.7 ×10⁻⁶ cm/s | 1.17 µM | 1.62 | > 20 µM | – | > 32 | > 37.3 µM | –
Cc1[nH]c2ccc(Br)cc2c(=O)c1Br | 1.4 µM | 95.2 ×10⁻⁶ cm/s | 0.339 µM | 1.76 | > 20 µM | 133 ×10⁻⁶ cm/s | > 92.9 | > 31.5 µM | –
Cc1[nH]c2ccc(Cl)cc2c(=O)c1Br | 0.845 µM | 87.7 ×10⁻⁶ cm/s | 0.126 µM | 2.02 | 5 µM (≈ 1.36 µg/mL) | 84.5 ×10⁻⁶ cm/s | 172 | 21.7 µM | –
CCCCC#Cc1c(C)[nH]c2ccc(Cl)cc2c1=O | > 9.06 µM | – | 43.1 µM | 2.98 | 2 µM (≈ 0.548 µg/mL) | 171 ×10⁻⁶ cm/s | > 0.84 | > 36.3 µM | –
CCCCC#Cc1c(C)[nH]c2ccc(F)cc2c1=O | > 9.64 µM | 495 ×10⁻⁶ cm/s | > 9.64 µM | 5.64 | 2 µM (≈ 0.515 µg/mL) | 314 ×10⁻⁶ cm/s | > 4 | > 38.6 µM | –
COc1cccc2[nH]c(C)c(-c3ccccc3)c(=O)c12 | 8.15 µM | 333 ×10⁻⁶ cm/s | 5.08 µM | 1.63 | > 20 µM | 24.4 ×10⁻⁶ cm/s | > 7.4 | > 37.7 µM | –
Cc1[nH]c2cccc(Cl)c2c(=O)c1Cc1ccccc1 | 0.63 µM | 251 ×10⁻⁶ cm/s | 5.26 µM | 2.65 | 2 µM (≈ 0.568 µg/mL) | 244 ×10⁻⁶ cm/s | > 6.7 | > 35.2 µM | –
Cc1[nH]c2ccc(Cl)cc2c(=O)c1Cc1ccccc1 | 2.47 µM | 415 ×10⁻⁶ cm/s | 3.28 µM | 2.79 | < 2 µM | 422 ×10⁻⁶ cm/s | > 10.7 | > 35.2 µM | –
Cc1[nH]c2cc(Cl)ccc2c(=O)c1Cc1ccccc1 | 2.17 µM | 392 ×10⁻⁶ cm/s | 15.7 µM | 2.69 | < 2 µM | 341 ×10⁻⁶ cm/s | > 2.2 | > 35.2 µM | –
Cc1[nH]c2c(Cl)cccc2c(=O)c1Cc1ccccc1 | > 8.81 µM | 412 ×10⁻⁶ cm/s | > 8.81 µM | 2.78 | 5 µM (≈ 1.42 µg/mL) | 430 ×10⁻⁶ cm/s | > 4 | > 35.2 µM | –
Cc1[nH]c2cccc(Cl)c2c(=O)c1-c1ccccc1 | 5.06 µM | 99.6 ×10⁻⁶ cm/s | 4.74 µM | 1.88 | 10 µM (≈ 2.7 µg/mL) | 91 ×10⁻⁶ cm/s | > 7.8 | > 37.1 µM | –
Cc1[nH]c2cc(Cl)ccc2c(=O)c1-c1ccccc1 | 0.216 µM | – | 1.86 µM | 2.18 | < 2 µM | 37.8 ×10⁻⁶ cm/s | > 19.9 | > 37.1 µM | –
Cc1[nH]c2cc(Cl)c(Cl)cc2c(=O)c1-c1ccccc1 | 0.569 µM | – | 0.35 µM | 3.05 | < 2 µM | – | > 93.3 | > 32.9 µM | –
Cc1[nH]c2ccccc2c(=O)c1/C=C/C(=O)OC(C)(C)C | > 8.35 µM | 124 ×10⁻⁶ cm/s | > 8.35 µM | 2.34 | > 20 µM | 105 ×10⁻⁶ cm/s | > 4.8 | > 40 µM | –
Cc1[nH]c2ccccc2c(=O)c1/C=C/c1cccc([N+](=O)[O-])c1 | 4.6 µM | 602 ×10⁻⁶ cm/s | 1.49 µM | 2.95 | < 2 µM | 508 ×10⁻⁶ cm/s | > 21.9 | > 32.6 µM | –
Cc1[nH]c2ccccc2c(=O)c1/C=C/c1ccc(O)cc1 | > 9.01 µM | 17 ×10⁻⁶ cm/s | > 9.02 µM | 1.77 | > 20 µM | 10.7 ×10⁻⁶ cm/s | > 4 | > 36.1 µM | –
COc1cccc2[nH]c(C)c(Cc3ccccc3)c(=O)c12 | 6.44 µM | 158 ×10⁻⁶ cm/s | 2.11 µM | 2.11 | > 20 µM | 69.8 ×10⁻⁶ cm/s | 5.33 | 11.2 µM | –
COc1ccc2[nH]c(C)c(Cc3ccccc3)c(=O)c2c1 | > 8.95 µM | 188 ×10⁻⁶ cm/s | 23.7 µM | 2.53 | 2 µM (≈ 0.559 µg/mL) | 167 ×10⁻⁶ cm/s | > 1 | > 23.7 µM | –
COc1ccc2c(=O)c(Cc3ccccc3)c(C)[nH]c2c1 | 0.733 µM | 240 ×10⁻⁶ cm/s | 1.38 µM | 2.52 | 5 µM (≈ 1.4 µg/mL) | 200 ×10⁻⁶ cm/s | > 25.9 | > 35.8 µM | –
COc1cccc2c(=O)c(Cc3ccccc3)c(C)[nH]c12 | > 2.24 µM | 125 ×10⁻⁶ cm/s | > 5.45 µM | 2.24 | > 20 µM | 164 ×10⁻⁶ cm/s | > 6.5 | > 35.8 µM | –
COc1c(Cc2ccccc2)c(C)nc2ccc(Cl)cc12 | > 8.4 µM | 268 ×10⁻⁶ cm/s | > 8.4 µM | 4.93 | < 2 µM | 360 ×10⁻⁶ cm/s | – | – | –
COc1ccc2c(OC)c(Cc3ccccc3)c(C)nc2c1 | > 8.52 µM | – | > 8.52 µM | 4.35 | 2 µM (≈ 0.587 µg/mL) | 325 ×10⁻⁶ cm/s | – | – | 1277.24 ×10⁻⁶ cm/s
CCCCCCCCCc1c(C)[nH]c2cc(OC)c(Cl)cc2c1=O | 0.00603 µM | – | 0.00159 µM | 4.74 | < 2 µM | – | > 18000 | > 28.7 µM | –
CCCCC#Cc1c(C)[nH]c2cc(OC)c(Cl)cc2c1=O | 2.16 µM | – | 4.21 µM | 2.45 | > 20 µM | 148 ×10⁻⁶ cm/s | 3.6 | 15 µM | –
Cc1[nH]c2ccccc2c(=O)c1Br | 0.453 µM | 13.6 ×10⁻⁶ cm/s | 0.0776 µM | 1.67 | > 20 µM | 8.19 ×10⁻⁶ cm/s | > 542 | > 42 µM | –
